# Assay results: article PMC9962302, “The Mechanism of Metal-Containing Formate Dehydrogenases Revisited: The Formation of Bicarbonate as Product Intermediate Provides Evidence for an Oxygen Atom Transfer Mechanism” (Molecules, 2023)
# B1: R. capsulatus FDH (RcFDH), metal-containing formate dehydrogenase (Rhodobacter capsulatus SB 1003) (protein)
# chain: MKDLIIPPLDWTQDMGTPKREGAPVHLTIDGVEVTVPAGTSVLRAAAEAGISIPKLCATDNVEPVGSCRLCMVEIEGMRGTPTSCTTPVAPGMRVHTQTPQLQKLRRGVMELYISDHPLDCLTCAANGDCELQDMAGAVGLREVRYQAKDTHFARRDATGPNPRYIPKDNSNPYFSYDPAKCIVCMRCVRACEEVQGTFALTVMGRGFDARISPAAPDFLSSDCVSCGACVQACPTATLVEKSVERIGTPERKVVTTCAYCGVGCSFEAHMLGDQLVRMVPWKGGAANRGHSCVKGRFAYGYATHQDRILKPMIRDKITDPWREVNWTEALDFTATRLRALRDSHGADALGVITSSRCTNEETYLVQKLARAVFGTNNTDTCARVCHSPTGYGLKQTFGTSAGTQDFDSVEETDLALVIGANPTDGHPVFASRLRKRLRAGAKLIVVDPRRIDLLNTPHRGEAWHLQLKPGTNVAVMTAMAHVIVTEQIFDKRFIGDRCDWDEWADYAEFVANPEYAPEAVESLTGVPAGLLRQAARAYAAAPNAAIYYGLGVTEHSQGSTTVIAIANLAMMTGNIGRPGVGVNPLRGQNNVQGSCDMGSFPHEFPGYRHVSDDATRGLFERTWGVTLSSEPGLRIPNMLDAAVEGRFKALYVQGEDILQSDPDTRHVSAGLAAMDLVIVHDLFLNETANYAHVFLPGSTFLEKDGTFTNAERRINRVRRVMAPKAGFADWEVTQMLANALGAGWHYTHPSEIMAEIAATTPGFAAVTYEMLDARGSVQWPCNEKAPEGSPIMHVEGFVRGKGRFIRTAYLPTDEKTGPRFPLLLTTGRILSQYNVGAQTRRTENTVWHGEDRLEIHPTDAETRGIRDGDWVRLASRAGETTLRATVTDRVSPGVVYTTFHHPDTQANVVTTDTSDWATNCPEYKVTAVQVAASNGPSDWQQDYAAQAAAARRIEAAE
# Legend:
# [1] = target: T1, R. capsulatus FDH (RcFDH), metal-containing formate dehydrogenase (Rhodobacter capsulatus, UniProt D5AQH0); assay: steady-state inhibition kinetics of formate oxidation, benzyl viologen as electron acceptor, […] nm; assay type: biochemical
# T1 construct: gene fdhA
# T1 sequence (D5AQH1 1-500 partner, one chain of several): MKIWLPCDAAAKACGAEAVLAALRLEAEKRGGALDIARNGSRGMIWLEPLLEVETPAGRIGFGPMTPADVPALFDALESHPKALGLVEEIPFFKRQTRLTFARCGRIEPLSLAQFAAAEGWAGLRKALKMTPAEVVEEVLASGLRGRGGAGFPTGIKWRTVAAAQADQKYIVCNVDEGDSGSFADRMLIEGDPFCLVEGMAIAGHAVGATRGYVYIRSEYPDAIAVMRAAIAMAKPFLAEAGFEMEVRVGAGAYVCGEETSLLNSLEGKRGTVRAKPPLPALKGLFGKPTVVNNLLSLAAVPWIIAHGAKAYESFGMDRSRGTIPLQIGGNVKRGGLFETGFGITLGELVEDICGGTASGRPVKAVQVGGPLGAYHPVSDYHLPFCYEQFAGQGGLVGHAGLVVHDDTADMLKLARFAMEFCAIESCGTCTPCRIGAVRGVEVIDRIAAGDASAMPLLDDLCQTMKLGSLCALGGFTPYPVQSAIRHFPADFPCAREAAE
# T1 sequence (D5AQH2 1-150 partner, one chain of several): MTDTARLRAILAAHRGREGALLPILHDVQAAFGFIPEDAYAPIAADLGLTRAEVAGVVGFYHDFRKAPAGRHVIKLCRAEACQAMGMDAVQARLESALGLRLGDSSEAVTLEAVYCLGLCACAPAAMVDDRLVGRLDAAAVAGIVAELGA
# T1 sequence (D5AQG8 1-71 partner, one chain of several): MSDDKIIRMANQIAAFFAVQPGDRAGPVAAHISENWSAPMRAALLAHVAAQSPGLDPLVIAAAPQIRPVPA
# [2] = target: T1, R. capsulatus FDH (RcFDH), metal-containing formate dehydrogenase; assay: inhibition of the back reaction (CO2 reduction) at […] CS2, […] nm; assay type: biochemical
# purified protein [3] = substrate: O=CO; assay: purified protein; assay type: biochemical, Rhodobacter capsulatus; settings: bis-MGD molybdenum cofactor, [4Fe-4S] cluster; NAD+ active site, molybdenum centre
# purified protein [4] = substrate: O=CS; assay: purified protein; assay type: biochemical, Rhodobacter capsulatus; settings: bis-MGD molybdenum cofactor, [4Fe-4S] cluster; NAD+
molecule,measurement,setting,value
S=CS [dithioformate],Ki,[1],7.5 mM
S=C=S [carbon disulfide],"inhibition of the back reaction (CO2 reduction) at 150 mM CS2, 340 nm",[2],"interfere with the active site and/or the hydrophobic channel and, therefore, inhibits the reduction in CO2 when present"
B1,Km,purified protein [3],0.145 ± 0.025 mM
same,Km,purified protein [4],3.3 ± 0.24 mM
